# Patent US5089401A, “Method for the preparation of fructose-containing oligosaccharide” (Ensuiko Sugar Refining Co., Ltd., priority 1990, dated 1992)
# Test system: bifidus bacteria
# Assay: not given
# Conditions: cited from earlier work
row,Molecule,activity as a growth factor of bifidus bacteria
1,"OC[C@H]1O[C@@H](O[C@H]2[C@H](O)[C@@H](O)[C@@H](O[C@]3(CO)O[C@H](CO)[C@@H](O)[C@@H]3O)O[C@@H]2CO)[C@H](O)[C@@H](O)[C@H]1O [lactosucrose, O-β-D-galactopyranosyl-(1→4)-O-α-D-glucopyranosyl-(1→2)-O-β-D-fructofuranoside]",has an activity as a growth factor of bifidus bacteria

# Molecular target: T1, β-fructofuranosidase (Microbacterium saccharophilum, UniProt Q8VW87)
# T1 construct: K-1 culture; crude supernatant or purified preparation
# T1 sequence (Q8VW87 37-578): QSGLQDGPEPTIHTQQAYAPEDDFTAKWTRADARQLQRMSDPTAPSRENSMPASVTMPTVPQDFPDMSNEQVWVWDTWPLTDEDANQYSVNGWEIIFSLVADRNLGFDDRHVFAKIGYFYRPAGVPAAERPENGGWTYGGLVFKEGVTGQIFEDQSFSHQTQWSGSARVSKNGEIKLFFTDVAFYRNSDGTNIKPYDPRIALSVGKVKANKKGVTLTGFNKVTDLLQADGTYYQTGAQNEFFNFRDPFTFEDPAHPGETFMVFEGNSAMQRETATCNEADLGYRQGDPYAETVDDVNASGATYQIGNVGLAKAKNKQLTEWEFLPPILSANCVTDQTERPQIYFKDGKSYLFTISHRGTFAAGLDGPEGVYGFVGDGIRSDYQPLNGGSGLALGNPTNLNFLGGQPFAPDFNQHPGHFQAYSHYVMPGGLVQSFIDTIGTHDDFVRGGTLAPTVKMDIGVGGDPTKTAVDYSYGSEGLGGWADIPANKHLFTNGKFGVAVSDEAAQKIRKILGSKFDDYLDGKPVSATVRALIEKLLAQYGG
# Assay: decomposition of saccharides by the β-fructofuranosidase (substrate specificity)
# Assay type: biochemical, Arthrobacter sp. K-1
# Conditions: not given
row,Molecule,activity of the enzyme in the decomposition of the saccharide
1,"OC[C@H]1O[C@@](CO)(O[C@H]2OC[C@@H](O)[C@H](O)[C@H]2O)[C@@H](O)[C@@H]1O [xylsucrose, O-β-D-fructofuranosyl-(2→1)-O-α-D-xylopyranoside]",active in the decomposition
2,OC[C@H]1O[C@H](OC[C@H]2O[C@H](O[C@]3(CO)O[C@H](CO)[C@@H](O)[C@@H]3O)[C@H](O)[C@@H](O)[C@@H]2O)[C@H](O)[C@@H](O)[C@H]1O [raffinose],active in the decomposition
3,OC[C@H]1O[C@@](CO)(OC[C@H]2O[C@H](O[C@]3(CO)O[C@H](CO)[C@@H](O)[C@@H]3O)[C@H](O)[C@@H](O)[C@@H]2O)[C@@H](O)[C@@H]1O [neokestose],active in the decomposition
4,OC[C@H]1O[C@@](CO)(OC[C@@]2(OC[C@@]3(O[C@H]4O[C@H](CO)[C@@H](O)[C@H](O)[C@H]4O)O[C@H](CO)[C@@H](O)[C@@H]3O)O[C@H](CO)[C@@H](O)[C@@H]2O)[C@@H](O)[C@@H]1O [nistose],hardly exhibits activity
5,OC[C@H]1O[C@@](CO)(OC[C@H]2O[C@](O)(CO)[C@@H](O)[C@@H]2O)[C@@H](O)[C@@H]1O [levan biose],hardly exhibits activity
6,OC[C@H]1O[C@H](OC[C@H]2O[C@H](OC[C@H]3O[C@H](O[C@]4(CO)O[C@H](CO)[C@@H](O)[C@@H]4O)[C@H](O)[C@@H](O)[C@@H]3O)[C@H](O)[C@@H](O)[C@H]2O)[C@H](O)[C@@H](O)[C@H]1O [stachyose],active in the decomposition
7,"OC[C@H]1O[C@@](CO)(O[C@H]2O[C@H](CO)[C@@H](O[C@H]3O[C@H](CO)[C@@H](O)[C@H](O)[C@H]3O)[C@H](O)[C@H]2O)[C@@H](O)[C@@H]1O [elrose, maltosyl fructoside]",active in the decomposition
8,inulobiose,hardly exhibits activity
9,OC[C@H]1O[C@@](CO)(OC[C@@]2(O[C@H]3O[C@H](CO)[C@@H](O)[C@H](O)[C@H]3O)O[C@H](CO)[C@@H](O)[C@@H]2O)[C@@H](O)[C@@H]1O [1-kestose],hardly exhibits activity
10,OC[C@H]1O[C@@](CO)(O[C@H]2O[C@H](CO)[C@@H](O)[C@H](O)[C@H]2O)[C@@H](O)[C@@H]1O [sucrose],active in the decomposition

# Molecular target: T1, β-fructofuranosidase
# Assay: not given
# Assay type: biochemical, Arthrobacter sp. K-1
# Conditions: not given
row,Molecule,inhibitive effect of the ion on the enzyme
1,copper,susceptible to the inhibitive effect
2,silver,susceptible to the inhibitive effect
3,zinc,susceptible to the inhibitive effect
4,mercury,susceptible to the inhibitive effect
